Like-named read-outs stand apart in the source and are kept apart here.
How the values were obtained:
[1] = test system: chloroquine-sensitive P. falciparum (NF54); test: Antimalarial screening, [3H]hypoxanthine incorporation; type: cell-based, Plasmodium falciparum
Experimental: Activity was determined by measuring the incorporation of [^3H]hypoxanthine, by the methods of Desjardins and Milhouse, with the following modifications, see […].; Haynes, […]. Antimicrob. Agents Chemother., 16: 710 (1979); Milhous, W. K.; Weatherly, […].; Antimicrob. Agents Chemother., 27: 525 (1985). […] Calbiochem #391338), 27 mM NaHCO3 (Gibco BRL # 11810-025), and 10% heat-inactivated human type O+serum (Interstate Blood Bank, Inc.), under 3% O2, 4% CO2, and 93% N2-Parasitemia was maintained at 0.05-3% and doubling time at approximately 15 hours by twice weekly change of medium and replenishment with fresh erythrocytes. […] Sigma-Aldrich #27,043-1). DMSO solutions were diluted 500-fold in medium, serially diluted in 0.2% DMSO in medium (to maintain constant solvent concentration), then 100 μL aliquots were pipetted into microtiter plate wells (Costar3595). […] Cells were harvested (Brandel MB-48R) onto GF-C glass filters (Brandel). The filters were washed five times with 3 mL water per sample spot, dried under a heat lamp, and counted (Beckman Model LS-6500) in scintillation cocktail (ICN Cytoscint). Decays per minute (dpm) values were downloaded and analyzed (Power Macintosh 7200/90; Microsoft Excel 5.0), to yield the mean and standard deviation at each drug concentration.

[2] = rat liver microsomes; cited from earlier work
[3] = test system: murine keratinocyte cell line PE; test: Growth inhibition of PE cells, MTT assay; type: cell-based; conditions: 96 hours
Experimental: To determine the inhibitory effect of the compositions of the present invention on cell proliferation, screening assays were performed on a murine keratinocyte cell line PE. Cell line PE was chosen for its particular sensitivity to the induction of omithine decarboxylase (ODC) activity by the extensively characterized tumor promoter TPA. Cell line PE was derived from a papilloma-induced in female SENCAR mice by a standard skin initiation/promotion protocol, see Yuspa, S. H., et al., Carcinogenesis, 7:949-958 (1986). PE cell culture medium consisted of Eagle's minimal essential medium without calcium chloride (Whittaker Bioproducts, Walkersville, Mass.) supplemented with 8% chelexed fetal calf serum and 1% antibiotic-antimycotic (Gibco BRL) and the addition of CaCI2 to 0.05 mM Ca^++
MTT [3-(4,5-dimethylthiazol-2-yl)-2,5-diphenyltetraxolium bromide] was purchased from Sigma Chemical Co. (St. Louis, Mo.), and TPA was supplied by L.C. Services (Woburn, Mass.). L-[^14C]omithine ([…]) was from Amersham/Searle Corp. (Arlington Heights, Ill.). Chemical solvents used in all assays of biological activity were of the highest grade commercially available.
Growth curves, shown in FIG. 5, for PE cells treated with calcitriol and the C-10 carbon-substituted dimers VII-f, VII-g and VII-h generated by assay for the reduction of the tetrazolium-based compound MTT, see Charmichael, et al., Cancer Res., 47:936-942 (1987). A mitochondrial dehydrogenase reduces MTT to a blue formazan product with an absorbance maximum of 505 nm in DMSO; the number of viable cells can thus be determined spectrophotometrically. PE cells were seeded at a density of 5,000 cells/well in 50 IL of medium into 96-well microtiter plates. Twelve hours later, the medium was removed, and cells were treated with 100 μL of fresh medium into which the appropriate amount of calcitriol or analog dissolved in dimethyl sulfoxide (DMSO) had been added, with the concentration of DMSO held constant at 0.1 %. […] At 24-hour intervals following the initial treatment of the cells with compounds, 0.1 mg (50 μL of a 2 mg/mL solution) of MTT was added to each well. After 4 hours, the MTT was removed and DMSO added to dissolve the blue formazan dye. Using a microtiter plate reader, the A505 was then determined and cell number calculated from blank-subtracted absorbance values.

[4] = in vivo; cited from earlier work
[5] = test system: P. berghei; conditions: P. berghei-infected mice; cited from earlier work
[6] = chloroquine-sensitive P. falciparum (NF54), read-out: IC50
[7] = Plasmodium falciparum, NF54, chloroquine-sensitive P. falciparum (NF54), read-out: IC50

Q: With `CC1=C(C=Cc2ccccc2)OC2OC3(C)CCC4C(C)CCC1C24OO3` (stereo not drawn) [Z-VII-C, 10-(Styryl)anhydroartemisinin] as the molecule, how does the IC50 [1, 6] read?
A: Its IC50 is 8.1 nM.

Q: For `CC1=C(c2nccs2)O[C@@H]2O[C@@]3(C)CC[C@H]4[C@H](C)CC[C@@H]1[C@@]24OO3` [Ib, 10-(2′-Thiazolyl)anhydroartemisinin], which IC50 ([1]; Plasmodium falciparum, NF54) is on record?
A: The IC50 was 14 nM.

Q: Which IC50 [1, 6] does the source give for `C=CC1=C(C)C2CCC(C)C3CCC4(C)OOC23C(O1)O4` (stereo not drawn) [VII-a, 10-Vinylanhydroartemisinin] here?
A: Its IC50 is 28 nM.

Q: Which IC50 [1, 6] does the source give for `CC1=C(C=Cc2ccc([N+](=O)[O-])cc2)OC2OC3(C)CCC4C(C)CCC1C24OO3` (stereo not drawn) [E-VII-d, 10-(p-Nitrostyryl)anhydroartemisinin] here?
A: The IC50 was 11 nM.

Q: What does the source list for `CC1=C(C=O)O[C@@H]2O[C@@]3(C)CC[C@H]4[C@H](C)CC[C@@H]1[C@@]24OO3` [Ie, 10-Formylanhydroartemisinin]?
A: IC50 [1, 7]: 37 nM; melting point: 115 to 117 °C

Q: With `CCO[C@H]1O[C@@H]2O[C@@]3(C)CC[C@H]4[C@H](C)CC[C@@H]([C@H]1C)[C@@]24OO3` [arteether] as the molecule, how does the “conversion into dihydroartemisinin (II-1)” value [2] read?
A: The value was “rapidly converted”.

Q: Which IC50 [1, 7] does the source give for `CC1=C(C(=O)c2ccccc2)O[C@@H]2O[C@@]3(C)CC[C@H]4[C@H](C)CC[C@@H]1[C@@]24OO3` [I-4, 10-Benzoylanhydroartemisinin] here?
A: The IC50 was 4.6 nM.

Q: With `CC1=C(C=Cc2ccccc2)OC2OC3(C)CCC4C(C)CCC1C24OO3` (stereo not drawn) [E-VII-c, 10-(Styryl)anhydroartemisinin] as the molecule, how does the IC50 [1, 6] read?
A: The IC50 was 16 nM.

Q: For `CC1=C(c2nc3ccccc3s2)OC2OC3(C)CCC4C(C)CCC1C24OO3` (stereo not drawn) [Benzo-4, 10-(2′-Benzothiazolyl)anhydroartemisinin], which IC50 [1, 6] is on record?
A: Its IC50 is 7.8 nM.

Q: For `C=C1/C(=C\C=C2/CCC[C@]3(C)[C@@H]([C@H](C)CCCC(C)(C)O)CC[C@@H]23)C[C@@H](O)C[C@@H]1O` [calcitriol, 1α, 25-dihydroxyvitamin D3, reference compound], which “viability of treated cells by trypan blue exclusion” value [3] is on record?
A: Its value is “identical to control cells”.

Q: For `CC1=C(C=Cc2ccc([N+](=O)[O-])cc2)OC2OC3(C)CCC4C(C)CCC1C24OO3` (stereo not drawn) [Z-VII-d, 10-(p-Nitrostyryl)anhydroartemisinin], which IC50 [1, 6] is on record?
A: The IC50 was 10 nM.

Q: For `C[C@H]1[C@@H](O)O[C@@H]2O[C@@]3(C)CC[C@H]4[C@H](C)CC[C@@H]1[C@@]24OO3` [II-1, dihydroartemisinin], which half-life in plasma [4] is on record?
A: The half-life in plasma was “less than two hours”.

Q: With 10-(Benzhydryl)anhydroartemisinin [I-5] as the molecule, how does the IC50 [1, 6] read?
A: Its IC50 is 4.5 nM.

Q: Which activity in words [5] does the source give for `CC1=CO[C@@H]2O[C@]3(C)CC[C@H]4[C@H](C)CC[C@@H]1[C@@]24OO3` [III] here?
A: Its activity in words is “inactive”.
